According to BindingDB's records for patent US20240109853 (Shanghai Yao Yuan Biotechnology Co., 2024):
pIC50: −log10 of the molar value. Where “and” joins values, the source holds several entries; their conditions need not be identical. Equal values may be shown once.

What follows are compounds tested against Alpha-protein kinase 1 (Homo sapiens, UniProt Q96QP1) (assay: ALPK1 In Vitro Kinase Assay).
Procedure: ALPK1 kinase activity was measured in an in vitro assay using ADP-Heptose as the ALPK1 ligand and activator of its kinase activity and TIFA protein as the ALPK1 phosphorylation substrate. Since phosphorylated TIFA proteins oligomerize, Homogeneous Time-Resolved Fluorescence (HTRF) was used to measure protein: protein interaction between HA-tagged TIFA proteins as an indicator of TIFA phosphorylation. In brief, dose-response studies were performed with […] in 384-well assay plates. Each well contained 0.1 mg TIFA, ALPK1 (2 nM final concentration in reaction mixture) and kinase buffer (100 mM of HEPES pH 7.4, 4 mM DTT, 40 mM MgCl2, 20 mM of β-Glycerol phosphate disodium salt, 0.4 mM of Na3VO4, 0.16 mg/mL). Titrations of the test compounds were prepared in dimethylsulphoxide (DMSO). The reaction was initiated by addition of ATP and ADP-Heptose.

Sequence of Alpha-protein kinase 1 (Q96QP1 whole entry): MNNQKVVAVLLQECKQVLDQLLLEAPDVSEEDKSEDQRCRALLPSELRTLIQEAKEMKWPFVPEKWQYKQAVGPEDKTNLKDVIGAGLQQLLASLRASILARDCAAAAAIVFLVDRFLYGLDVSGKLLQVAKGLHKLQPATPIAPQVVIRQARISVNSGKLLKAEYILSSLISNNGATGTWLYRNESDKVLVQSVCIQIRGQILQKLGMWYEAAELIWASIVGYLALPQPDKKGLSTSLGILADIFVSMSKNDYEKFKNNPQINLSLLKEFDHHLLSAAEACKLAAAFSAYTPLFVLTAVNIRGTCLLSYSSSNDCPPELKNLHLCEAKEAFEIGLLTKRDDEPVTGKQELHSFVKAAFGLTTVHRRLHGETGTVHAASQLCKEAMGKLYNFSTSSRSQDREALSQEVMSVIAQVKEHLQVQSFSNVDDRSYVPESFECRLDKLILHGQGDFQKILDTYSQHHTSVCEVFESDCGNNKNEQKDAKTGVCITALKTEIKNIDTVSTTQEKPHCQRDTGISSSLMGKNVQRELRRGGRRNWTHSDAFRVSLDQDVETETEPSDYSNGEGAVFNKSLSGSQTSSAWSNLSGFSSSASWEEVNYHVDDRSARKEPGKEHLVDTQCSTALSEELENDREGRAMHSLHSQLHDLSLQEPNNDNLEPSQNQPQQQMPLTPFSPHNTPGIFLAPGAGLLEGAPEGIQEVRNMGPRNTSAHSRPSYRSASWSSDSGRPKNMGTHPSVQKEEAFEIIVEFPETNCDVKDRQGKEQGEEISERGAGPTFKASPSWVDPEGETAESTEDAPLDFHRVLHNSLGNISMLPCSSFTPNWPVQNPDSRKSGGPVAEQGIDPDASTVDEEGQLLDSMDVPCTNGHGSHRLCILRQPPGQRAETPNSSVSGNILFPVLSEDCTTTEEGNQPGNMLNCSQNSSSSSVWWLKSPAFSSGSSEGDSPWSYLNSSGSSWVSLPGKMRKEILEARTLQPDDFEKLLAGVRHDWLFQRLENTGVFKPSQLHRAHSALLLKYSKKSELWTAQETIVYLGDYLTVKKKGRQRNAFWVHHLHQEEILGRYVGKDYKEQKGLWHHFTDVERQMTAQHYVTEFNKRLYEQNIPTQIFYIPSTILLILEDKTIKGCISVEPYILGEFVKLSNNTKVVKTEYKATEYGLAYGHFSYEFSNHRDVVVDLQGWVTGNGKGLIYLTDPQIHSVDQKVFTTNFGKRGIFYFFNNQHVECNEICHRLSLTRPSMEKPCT

| Compound | pIC50 |
| --- | --- |
| CC(C)(c1ccc(Br)cc1)c1csc(NC(=O)NCc2ccc(N3CCNCC3)c(Br)c2)n1 [US20240109853, Compound A097] | 7.06 |
| COc1ccc(C(C)(C)c2csc(NC(=O)NCc3cc(F)c(C4CCNCC4)c(F)c3)n2)cc1 [US20240109853, Compound A151] | 7.37 |
| CC(C)(c1ccc(Br)cc1)c1csc(NC(=O)NCc2ccc(C3CCNCC3)c(F)c2)n1 [US20240109853, Compound A222] | 7.25 |
| C#C[C@@](C)(c1ccc(Cl)cc1)c1nc(NC(=O)NCCO)sc1Cl [US20240109853, Compound A247] | 6.39 |
| C#C[C@](C)(c1ccc(Cl)cc1)c1nc(NC(=O)NCCO)sc1Cl [US20240109853, Compound A248] | 5.89 |
| C#CC(C)(c1ccc(Cl)cc1)c1csc(NC(=O)N2CC(N)C2)n1 (configuration not stated) [US20240109853, Compound A275] | 6.30 and 6.61 |
| C#CC(C)(c1ccc(Cl)cc1)c1csc(NC(=N)N)n1 (configuration not stated) [US20240109853, Compound A276] | 6.46 |
| C#C[C@@](C)(c1ccc(Cl)cc1)c1csc(NC(=O)NC(C)CO)n1 (some centres not stated) [US20240109853, Compound A312] | 6.26 and 6.21 |
| C#C[C@](C)(c1ccc(Cl)cc1)c1csc(NC(=O)NC(C)CO)n1 (some centres not stated) [US20240109853, Compound A314] | 6.58 and 7.09 |
| C#C[C@](C)(c1ccc(Cl)cc1)c1csc(NC(=O)NCC(C)O)n1 (some centres not stated) [US20240109853, Compound A316] | 6.38 and 6.27 |
| C#C[C@@](C)(c1ccc(Cl)cc1)c1csc(NC(=O)NCC(C)O)n1 (some centres not stated) [US20240109853, Compound A317] | 7.07 and 6.81 |
| COc1ccc(C(C)(C)c2csc(NC(=O)c3ccc(N4CC5CC(C4)N5)cc3)n2)cc1 [US20240109853, Compound B048] | 7.14 |
